Test results reported in patent US20230098332A1, “HETEROCYCLIC DERIVATIVES AS TRMP8 ANTAGONISTS” (Givaudan SA, priority 2020, published 2023).
Structures can show the parent of a compound that is named as a salt.

Target: T1, hTRPM8 (Homo sapiens, UniProt Q7Z2W7)
T1 construct: expressed in transfected cells
Assay: Assay on TRPM8 modulators: calcium imaging (Fluo-4, Flexstation) in HEK293 cell line stably expressing hTRPM8
Format: cell-based
Settings: TRPM8 agonist activity, calcium influx, HEK293 stably expressing hTRPM8, sigmoidal dose-response fit
Method: A HEK293 cell line stably expressing hTRPM8 was generated according to Klein et al., (Chem. Senses 36: 649-658, 2011) and receptor activation was monitored by calcium imaging in a Flexstation. For Ca-imaging assays of TRPM8 channel activation, cells were seeded on day 0 at a density of 12000 cells per well in Dulbecco's modified Eagle medium (DMEM) containing 9% foetal bovine serum in black, clear bottom 96-well plates that had been coated with 0.001% polyethyleneimine (molecular weight=60 000, Acros Organics). On day 2, agonists were evaluated via calcium imaging using Fluo-4. Briefly, growth medium was discarded, and the cells were incubated in the dark for 1 h at 37° C. in 50 μL loading buffer consisting of 2.7 μM Fluo-4 AM (Invitrogen) and […] probenecid (Sigma-Aldrich) in DMEM (without serum). After incubation, the plates were washed five times with 100 μL of assay buffer (in mM: 130 NaCl, 5 KCl, 10 HEPES, 2 CaCl2, and 10 glucose, pH7.4.) and further incubated in the dark at room temperature for 30 min. The cells were then washed five times with 100 μL assay buffer and then calcium influx to serial dilutions of inventive compounds were measured in a Flexstation 3 (Molecular Devices). Receptor activation was initiated following addition of 20 μl of a 10-fold concentrated ligand stock solution, which is also prepared in assay buffer. Fluorescence was continuously monitored for 15 seconds prior to ligand addition and for 105 seconds after ligand addition, for a total of 120 seconds. Maximal receptor activation in relation to solvent control and relative to 31.6 μM menthol is determined. Data from serial dilutions were processed with a KNIME workflow to fit a sigmoidal dose-response curve and to extrapolate EC50 values.

T1 sequence (Q7Z2W7 whole entry): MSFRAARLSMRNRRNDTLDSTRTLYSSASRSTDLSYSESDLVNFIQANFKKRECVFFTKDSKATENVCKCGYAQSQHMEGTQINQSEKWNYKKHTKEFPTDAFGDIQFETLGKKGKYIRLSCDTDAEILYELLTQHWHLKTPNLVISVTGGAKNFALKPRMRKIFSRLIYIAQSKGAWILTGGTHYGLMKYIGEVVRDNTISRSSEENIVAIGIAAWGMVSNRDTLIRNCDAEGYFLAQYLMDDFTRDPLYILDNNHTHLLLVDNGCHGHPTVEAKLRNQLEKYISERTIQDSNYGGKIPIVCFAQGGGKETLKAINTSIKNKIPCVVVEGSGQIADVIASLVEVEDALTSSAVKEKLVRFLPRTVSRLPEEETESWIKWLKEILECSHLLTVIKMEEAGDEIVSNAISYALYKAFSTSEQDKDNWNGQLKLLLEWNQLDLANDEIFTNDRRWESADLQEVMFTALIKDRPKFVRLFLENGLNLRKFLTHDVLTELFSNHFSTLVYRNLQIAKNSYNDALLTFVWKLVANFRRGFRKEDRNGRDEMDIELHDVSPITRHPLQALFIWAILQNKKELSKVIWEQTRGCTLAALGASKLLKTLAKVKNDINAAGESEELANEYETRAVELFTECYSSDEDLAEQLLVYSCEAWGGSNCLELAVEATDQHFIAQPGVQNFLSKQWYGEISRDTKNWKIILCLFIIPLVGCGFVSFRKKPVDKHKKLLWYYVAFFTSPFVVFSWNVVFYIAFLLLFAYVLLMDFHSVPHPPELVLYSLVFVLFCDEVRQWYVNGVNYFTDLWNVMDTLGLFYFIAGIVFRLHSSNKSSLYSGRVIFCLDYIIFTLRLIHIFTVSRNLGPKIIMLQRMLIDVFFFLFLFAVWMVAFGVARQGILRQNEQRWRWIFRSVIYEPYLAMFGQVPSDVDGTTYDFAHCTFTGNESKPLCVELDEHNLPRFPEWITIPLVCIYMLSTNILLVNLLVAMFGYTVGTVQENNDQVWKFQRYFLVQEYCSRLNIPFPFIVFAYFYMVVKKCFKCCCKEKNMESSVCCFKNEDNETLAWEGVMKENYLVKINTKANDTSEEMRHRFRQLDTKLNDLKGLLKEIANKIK

Row | SMILES | EC50 [nM]
1 | CCc1ccc(OCCN2CCN(C)CC2)c(Cc2ccccc2)c1 [compound 74, 1-(2-(2-benzyl-4-ethylphenoxy)ethyl)-4-methylpiperazine hydrochloride] | 300 to 1000
2 | C=C(c1ccccc1F)c1cc(C)cc(C)c1OCCN1CCOCC1 [compound 145, 4-(2-(2-(1-(2-fluorophenyl)vinyl)-4,6-dimethylphenoxy)ethyl)morpholine] | 300 to 1000
3 | CC(C)c1ccc(OCCN2CCN(C)CC2)c(Cc2ccccc2)c1 [compound 75, 1-(2-(2-benzyl-4-isopropylphenoxy)ethyl)-4-methylpiperazine] | 1000 to 35000
4 | Cc1cc(C)c(N(C)CCN2CCOCC2)c(Cc2ccccc2F)c1 [compound 113, 2-(2-fluorobenzyl)-N,4,6-trimethyl-N-(2-morpholinoethyl)aniline] | 300 to 1000
5 | Cc1cc(C)c(OC(C)CN2CCOCC2)c(Cc2ccccc2C#N)c1 (stereo not shown) [compound 49, 2-(3,5-dimethyl-2-((1-morpholinopropan-2-yl)oxy)benzyl)benzonitrile] | 50 to 300
6 | CN1CCN(CCOc2ccc(Cl)cc2Cc2ccccc2)CC1 [compound 73, 1-(2-(2-benzyl-4-chlorophenoxy)ethyl)-4-methylpiperazine hydrochloride] | 300 to 1000
7 | Cc1cc(C)c(OCCN2CCOCC2)cc1Cc1c(F)c(F)c(F)c(F)c1F [compound 155, 4-(2-(2,4-dimethyl-5-((perfluorophenyl)methyl)phenoxy)ethyl)morpholine] | 1000 to 35000
8 | CC1CCC(OCCN2CCN(C)CC2)C(Cc2ccccc2)C1 (stereo not shown) [compound 51, 1-(2-((2-benzyl-4-methylcyclohexyl)oxy)ethyl)-4-methylpiperazine] | 1000 to 35000
9 | Cc1cc(C)c(OCCN2CCN(C)CC2)c(Cc2cccc(Br)c2)c1 [compound 58, 1-(2-(2-(3-bromobenzyl)-4,6-dimethylphenoxy)ethyl)-4-methylpiperazine] | 1000 to 35000
10 | Cc1ccc(OCCN2CCN(C)CC2)c(Cc2ccco2)c1 [compound 61, 1-(2-(2-(furan-2-ylmethyl)-4-methylphenoxy)ethyl)-4-methylpiperazine] | 1000 to 35000
11 | COc1cccc(OCCN2CCN(C)CC2)c1Cc1ccccc1 [compound 67, 1-(2-(2-benzyl-3-methoxyphenoxy)ethyl)-4-methylpiperazine] | 1000 to 35000
12 | Cc1cc(C)c(OCCN2CCOCC2)c(Cc2cc(F)cc(F)c2)c1 [compound 154, 4-(2-(2-(3,5-difluorobenzyl)-4,6-dimethylphenoxy)ethyl)morpholine] | 300 to 1000
13 | Cc1ccc(/C=C/CN2CCN(C)CC2)c(Cc2ccccc2)c1 [compound 44, (E)-1-(3-(2-benzyl-4-methylphenyl)allyl)-4-methylpiperazine] | 1000 to 35000
14 | Cc1cc(C)c(OCCN2CCOCC2)c(Cc2cc(F)c(F)cc2F)c1 [compound 156, 4-(2-(2,4-dimethyl-6-(2,4,5-trifluorobenzyl)phenoxy)ethyl)morpholine] | 1000 to 35000
15 | Cc1ccc(OC(=O)CN2CCN(C)CC2)c(Cc2ccccc2)c1 [compound 136, 2-benzyl-4-methylphenyl 2-(4-methylpiperazin-1-yl)acetate] | 1000 to 35000
16 | Cc1cc(C)c(OCC(C)N2CCOCC2)c(Cc2ccccc2C#N)c1 (stereo not shown) [compound 48, 2-(3,5-dimethyl-2-(2-morpholinopropoxy)benzyl)benzonitrile] | 50 to 300
17 | Cc1ccc(OCCN2CCOCC2)c(/C=C2\CCCCC2=O)c1 [compound 47, (E)-2-(5-methyl-2-(2-morpholinoethoxy)benzylidene)cyclohexan-1-one] | 50 to 300
18 | Cc1cc(C)c(OCCN2CCOCC2)c(C(C)c2ccccc2F)c1 (stereo not shown) [compound 144, 4-(2-(2-(1-(2-fluorophenyl)ethyl)-4,6-dimethylphenoxy)ethyl)morpholine] | 300 to 1000
19 | Cc1cccc(OCCN2CCN(C)CC2)c1Cc1ccccc1 [compound 68, 1-(2-(2-benzyl-3-methylphenoxy)ethyl)-4-methylpiperazine] | 1000 to 35000
